Assay results: patent publication US10722514B2 (FLX Bio, Inc., priority 2017, dated 2020)
Where a name gives a salt, the structure may show the parent alone. Read-outs that look alike come from different tables or passages of the source.

Biological target: T1, recombinant full-length USP7 (Homo sapiens, UniProt Q93009)
T1 construct: A 25 μl reaction volume containing recombinant full-length USP7 (62 pM)
Experiment: USP7-mediated ubiquitin-rhodamine cleavage assay
Assay type: biochemical
Details: recombinant full-length USP7 62 pM, ubiquitin-rhodamine 100 nM, 1 hour reaction at room temperature
How it was run: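 Compounds are first incubated with 62 pM enzyme for 30 min at room temperature in pH 7.3 HEPES buffer containing TCEP and BSA. Cleavage of 100 nM ubiquitin-rhodamine proceeds for 1 h before an acid quench, and IC50 is derived from fluorescence.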

[1] = 30-minute pre-incubation, read-out: Potency (USP7 IC50)
[2] = 30-minute incubation with compound, read-out: Potency: USP7 IC50

T1 sequence (Q93009 whole entry): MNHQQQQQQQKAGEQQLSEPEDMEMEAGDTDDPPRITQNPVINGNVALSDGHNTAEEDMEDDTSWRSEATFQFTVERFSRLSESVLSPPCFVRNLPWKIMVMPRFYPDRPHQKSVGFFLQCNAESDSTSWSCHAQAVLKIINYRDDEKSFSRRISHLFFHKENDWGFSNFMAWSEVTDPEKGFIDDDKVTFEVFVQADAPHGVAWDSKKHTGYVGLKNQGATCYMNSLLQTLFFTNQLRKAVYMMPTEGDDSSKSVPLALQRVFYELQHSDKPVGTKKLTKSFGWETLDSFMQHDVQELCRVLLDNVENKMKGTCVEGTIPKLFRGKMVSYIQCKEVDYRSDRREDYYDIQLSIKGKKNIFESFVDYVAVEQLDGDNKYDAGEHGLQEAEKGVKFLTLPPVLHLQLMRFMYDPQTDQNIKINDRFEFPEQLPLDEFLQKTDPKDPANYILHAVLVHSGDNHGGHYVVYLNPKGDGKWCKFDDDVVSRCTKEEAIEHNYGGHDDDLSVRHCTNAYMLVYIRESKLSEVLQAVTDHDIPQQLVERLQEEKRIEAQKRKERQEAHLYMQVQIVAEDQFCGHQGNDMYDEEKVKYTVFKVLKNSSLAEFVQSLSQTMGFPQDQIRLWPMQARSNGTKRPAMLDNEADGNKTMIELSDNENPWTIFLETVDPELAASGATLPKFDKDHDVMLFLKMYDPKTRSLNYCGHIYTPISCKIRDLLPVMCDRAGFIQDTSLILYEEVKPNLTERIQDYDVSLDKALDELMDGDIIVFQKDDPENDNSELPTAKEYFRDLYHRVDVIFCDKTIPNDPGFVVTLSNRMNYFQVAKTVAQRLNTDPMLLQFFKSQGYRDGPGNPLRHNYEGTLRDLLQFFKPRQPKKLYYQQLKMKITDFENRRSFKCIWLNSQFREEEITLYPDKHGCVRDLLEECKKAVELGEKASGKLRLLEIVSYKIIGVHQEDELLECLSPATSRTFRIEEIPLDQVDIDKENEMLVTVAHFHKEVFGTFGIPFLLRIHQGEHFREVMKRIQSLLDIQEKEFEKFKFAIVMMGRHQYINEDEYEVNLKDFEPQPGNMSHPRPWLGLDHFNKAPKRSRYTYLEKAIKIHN

| Structure (SMILES) | IC50 [2] [nM] | other results |
| --- | --- | --- |
| Cc1cc(Cl)cc(-c2ccnc3cc(Cn4c(=O)ccn(CC(F)(F)F)c4=O)sc23)c1OC1(C)CC(N)C1 (stereo not drawn) [Example 640, 3-[[7-[2-(3-amino-1-methyl-cyclobutoxy)-5-chloro-3-methyl-phenyl]thieno[3,2-b]pyridin-2-yl]methyl]-1-(2,2,2-trifluoroethyl)pyrimidine-2,4-dione] |  | IC50 [1]: < 1000 nM |
| CCC1(C)CC(=O)N(Cc2cc3ncnc(-c4cc(Cl)cc(C)c4O[C@@H]4CNC[C@@H]4F)c3s2)C1=O (stereo partly drawn) [Example 381, 1-[[4-[5-chloro-2-[(3R,4S)-4-fluoropyrrolidin-3-yl]oxy-3-methyl-phenyl]thieno[3,2-d]pyrimidin-6-yl]methyl]-3-ethyl-3-methyl-pyrrolidine-2,5-dione; 2,2,2-trifluoroacetic acid] | < 1000 |  |
| Cc1cc(Cl)cc(-c2ccnc3cc([C@H](C)N4C(=O)CCC4=O)sc23)c1OC1CCNCC1 [Example 1, (S)-1-(1-(7-(5-Chloro-3-methyl-2-(piperidin-4-yloxy)phenyl)thieno[3,2-b]pyridin-2-yl)ethyl)pyrrolidine-2,5-dione] | 1000 to 10000 |  |
| Cc1cc(Cl)cc(-c2ccnc3cc(CO)sc23)c1O[C@@H]1CNC[C@@H]1C(C)C [Example 68, (7-(5-Chloro-2-(((3S,4S)-4-isopropylpyrrolidin-3-yl)oxy)-3-methylphenyl)thieno[3,2-b]pyridin-2-yl)methanol] | > 30000 |  |
| CCC(O)c1cc2nccc(-c3cc(Cl)cc(C)c3OC3CCNC3=O)c2s1 (stereo not drawn) [Example 87, 3-(4-Chloro-2-(2-(1-hydroxypropyl)thieno[3,2-b]pyridin-7-yl)-6-methylphenoxy)pyrrolidin-2-one] | 10000 to 30000 |  |
| Cc1cc(Cl)cc(-c2ncnc3cc(CN4C(=O)C5C(C4=O)C5(C)C)sc23)c1O[C@@H]1CCN(C)C[C@@H]1C (stereo partly drawn) [Example 373, 3-[[4-[5-chloro-2-[[(3S,4R)-1,3-dimethyl-4-piperidyl]oxy]-3-methyl-phenyl]thieno[3,2-d]pyrimidin-6-yl]methyl]-6,6-dimethyl-3-azabicyclo[3.1.0]hexane-2,4-dione dihydrochloride] | < 1000 |  |
| CCC(O)c1cc2nccc(-c3cc(Cl)cc(C)c3O[C@H]3CCCNC3)c2s1 (stereo partly drawn) [Example 164, 1-(7-(5-Chloro-3-methyl-2-(((S)-piperidin-3-yl)oxy)phenyl)thieno[3,2-b]pyridin-2-yl)propan-1-ol] | 1000 to 10000 |  |
| Cc1cc(Cl)cc(-c2ccnc3cc(Cn4c(=O)ccn(CC(F)(F)F)c4=O)sc23)c1OC1CC(N2CCC(O)C2)C1 (stereo not drawn) [Example 672, 3-[[7-[5-chloro-2-[3-(3-hydroxypyrrolidin-1-yl)cyclobutoxy]-3-methyl-phenyl]thieno[3,2-b]pyridin-2-yl]methyl]-1-(2,2,2-trifluoroethyl)pyrimidine-2,4-dione; 2,2,2-trifluoroacetic acid] |  | IC50 (30-minute incubation, read-out: Potency (USP7 IC50)): < 1000 nM |
| Cc1cc(Cl)cc(-c2ccnc3cc(Cn4c(=O)ccn(C)c4=O)sc23)c1O[C@H]1C[C@H](N)C1 [Example 7, 3-((7-(2-((1r,3r)-3-Aminocyclobutoxy)-5-chloro-3-methylphenyl)thieno[3,2-b]pyridin-2-yl)methyl)-1-methylpyrimidine-2,4(1H,3H)-dione] | < 1000 |  |
| Cc1cc(Cl)cc(-c2ccnc3cc(CO)sc23)c1OC[C@@H]1CCN1 [Example 18, (S)-(7-(2-(Azetidin-2-ylmethoxy)-5-chloro-3-methylphenyl)thieno[3,2-b]pyridin-2-yl)methanol] | 10000 to 30000 |  |
| Cc1cc(Cl)cc(-c2ccnc3cc(Cn4c(=O)c(F)cn(C)c4=O)sc23)c1O[C@H]1CCCNC1 [Example 422, 3-[[7-[5-chloro-3-methyl-2-[[(3S)-3-piperidyl]oxy]phenyl]thieno[3,2-b]pyridin-2-yl]methyl]-5-fluoro-1-methyl-pyrimidine-2,4-dione] |  | IC50 [1]: < 1000 nM |
| Cc1cc(Cl)cc(-c2ccnc3cc(CN4C(=O)CCC4=O)sc23)c1O[C@H]1CCCN(C)C1 [Example 448, 1-[[7-[5-chloro-3-methyl-2-[[(3S)-1-methyl-3-piperidyl]oxy]phenyl]thieno[3,2-b]pyridin-2-yl]methyl]pyrrolidine-2,5-dione] |  | IC50 [1]: < 1000 nM |
